In publication PMC11017401, “Novel molecular mechanism driving neuroprotection after soluble epoxide hydrolase inhibition: Insights for Alzheimer's disease therapeutics” (CNS Neuroscience & Therapeutics, 2023):
Entries after “also recorded” stand apart in the source; their conditions may differ. Marks after values point to notes of the source that are not given here.

What was measured:
Human primary astrocytes = experiment: T/I/C-induced reactive astrocyte conversion (qPCR, western blot); assay type: cell-based
Method: A total quantity of 1 × 10^6 astrocytes isolated from CD1 mouse brain (ScienCell #M1800) or primary human astrocyte (ScienCell #1800) were seeded onto PLL‐coated 6‐well culture plates in astrocyte medium (ScienCell #1831 or #1801).
Astrocytes cultures were incubated in serum‐free condition for 24 h and pretreated for 30 min with UB‐SCG‐51 or p‐eIF2α signal inhibitor (Sigma, SML0843), followed by recombinant T/I/C: IL‐1α (3 ng/mL, Peprotech, Thermo Fisher), TNF‐α (30 ng/mL, R&D), C1q (400 ng/mL, R&D), or PBS for 24 h.
Microglia or astrocyte proteins were extracted by RIPA buffer (Thermo Fisher Scientific Inc.). Extracted proteins were separated by SDS/PAGE and subsequently transferred to nitrocellulose membranes (Bio‐Rad). Membranes were blocked in 3% BSA for 1 h at RT and incubated with primary antibodies (details in resource and reagent Table) overnight at 4°C, followed by incubation with Highly Cross‐Adsorbed Secondary Antibody, Alexa Fluor Plus 800 or 680 (Life Technologies) for 1 h at RT. Membranes visualized on Odyssey (LI‐COR Biosciences).
Microglia or astrocyte total RNAs were isolated by using a Quick‐RNA kit (Zymo Research, Inc.). The concentration of total RNAs was measured using a UV–Vis spectrophotometer (NanoDrop8000, Thermo Fisher Scientific Inc.) and reverse‐transcribed with a high‐capacity cDNA reverse transcription kit (Applied Biosystems). Gene expression was quantified by Fast SYBR green real‐time PCR on a Quantstudio 5 system (Applied Biosystems). Data were analyzed according to the comparative Ct method. Gapdh was used to normalize the amounts of cDNA within each sample.

[1] = system: PTZ-induced seizures in mice; experiment: Pentylenetetrazol (PTZ) seizure test
Method: Then, a standard acute test involving the administration of pro‐convulsant PTZ was employed.[32], [33] Furthermore, the PTZ assay is considered highly translatable from mice to humans. In the test, PTZ was administered at 85 mg/Kg by the subcutaneous route and the time to onset of first clonic seizure, an average of clonic seizures, tonic seizure latency and lethality were monitored for 30 min.

[2] = 5 mg/Kg by gavage 1 h prior to PTZ 85 mg/Kg s.c.

Row | Structure (SMILES) | C3 gene expression levels in co-treatment (Human primary astrocytes; T/I/C-activated astrocytes, SML0843 + UB-SCG-51, T/I/C alone about 10x control) [x fold] | C3 gene expression in T/I/C-activated astrocytes, single treatment (Human primary astrocytes; human primary astrocytes, T/I/C 24 h) | effect of co-treatment with p-eIF2α signal inhibitor (SML0843) on the UB-SCG-51 effect on C3 gene expression (Human primary astrocytes; human primary astrocytes, T/I/C, SML0843 + UB-SCG-51) | onset of tonic seizures induced by PTZ vs vehicle ([1]; 5 mg/Kg by gavage) | Average clonic seizure (SEM) [1, 2] | Protected from tonic/total (Mortality) [1, 2] | Mean time to clonic seizure latency in seconds (SEM) ([1]; 5 mg/Kg by gavage 1 h prior to PTZ 85 mg/Kg s.c., monitored 30 min) | average seizure score ([1]; 5 mg/Kg by gavage, group comparison)
1 | O=C(COc1ccc(Cl)cc1)NC1CCC(NC(=O)COc2ccc(Cl)cc2)CC1 (centres unmarked) [SML0843] | 2 | did not modify; also recorded: did not affect | partially block | – | – | – | – | –
2 | CCC(=O)N1CCC(NC(=O)Nc2ccc(OC(F)(F)F)cc2)CC1 [TPPU] | – | – | – | delay the onset of tonic seizures | 3.67 (0.56)** | 5/6^**** | 605.33 (144.78) seconds | significant reduction
